Reference: ChEMBL document CHEMBL1201862, “PubChem BioAssay data set” (2004)
Where “and” joins values, the source holds several entries; their conditions need not be identical. Equal entries are not always repeated.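 Values below derive from 48-hour exposures of cells grown in 96-well plates, with endpoints linearly interpolated between the two concentrations bracketing the appropriate inhibition level. The concentration for 50% growth inhibition is given as GI50.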 Calls of active or inactive are those of the source. Rule as the data show it: active = GI50 up to about 1.1 µM and inactive = higher.

How the values were obtained:
Test in all cases: NCI-60 cell line screen, 48 h
SF-539 = test system: SF-539
NCI-H226 = test system: NCI-H226
UO-31 = test system: UO-31
U-251 = test system: U-251
HCT-15 = test system: HCT-15
786-0 = test system: 786-0
PC-3 = test system: PC-3
IGROV-1 = test system: IGROV-1
SK-MEL-5 = test system: SK-MEL-5
SNB-75 = test system: SNB-75
UACC-62 = test system: UACC-62
MDA-MB-435 = test system: MDA-MB-435
OVCAR-4 = test system: OVCAR-4
SNB-19 = test system: SNB-19
SK-OV-3 = test system: SK-OV-3
SK-MEL-28 = test system: SK-MEL-28
RXF 393 = test system: RXF 393
COLO 205 = test system: COLO 205
ACHN = test system: ACHN
Malme-3M = test system: Malme-3M

Row | Compound | GI50 (SF-539) | GI50 (NCI-H226) | GI50 (UO-31) | GI50 (U-251) | GI50 (HCT-15) | GI50 (786-0) | GI50 (PC-3) | GI50 (IGROV-1) | GI50 (SK-MEL-5) | GI50 (SNB-75) | GI50 (UACC-62) | GI50 (MDA-MB-435) | GI50 (OVCAR-4) | GI50 (SNB-19) | GI50 (SK-OV-3) | GI50 (SK-MEL-28) | GI50 (RXF 393) | GI50 (COLO 205) | GI50 (ACHN) | GI50 (Malme-3M)
1 | CCOC(=O)c1nc2ccc(C(F)(F)F)cc2nc1Oc1ccc(F)cc1 | > 100 µM (inactive) | > 100 µM (inactive) | > 100 µM (inactive) | > 100 µM (inactive) | > 100 µM | > 100 µM (inactive) | > 100 µM (inactive) | > 100 µM (inactive) | > 100 µM (inactive) | > 100 µM (inactive) | > 100 µM (inactive) | > 100 µM (inactive) | > 100 µM (inactive) | > 100 µM (inactive) | > 100 µM (inactive) | > 100 µM (inactive) | > 100 µM (inactive) | > 100 µM (inactive) | > 100 µM (inactive) | 
2 | CN1CCOC(c2ccccc2)O1 (centres undefined) | > 100 µM (inactive) | > 100 µM (inactive) | > 100 µM (inactive) | > 100 µM (inactive) | > 100 µM | > 100 µM (inactive) |  | > 100 µM (inactive) | > 100 µM (inactive) | > 100 µM (inactive) | > 100 µM (inactive) |  | > 100 µM (inactive) | > 100 µM (inactive) | > 100 µM (inactive) | > 100 µM (inactive) | > 100 µM (inactive) | > 100 µM (inactive) | > 100 µM (inactive) | > 100 µM (inactive)
3 | C1CN(c2nc3c(nnc4nc(N5CCOCC5)sc43)s2)CCO1 | > 100 µM (inactive) | 84.7 µM (inactive) | > 100 µM (inactive) | 60.8 µM (inactive) | > 100 µM | > 100 µM (inactive) | > 100 µM (inactive) | > 100 µM (inactive) | > 100 µM (inactive) |  | > 100 µM (inactive) | > 100 µM (inactive) | > 100 µM (inactive) | 89.1 µM (inactive) |  | > 100 µM (inactive) | > 100 µM (inactive) | > 100 µM (inactive) | > 100 µM (inactive) | 37.2 µM (inactive)
4 | O=C(Nc1ccccc1-c1n[nH]c(S)nc1=O)C(F)(F)F | > 100 µM (inactive) | > 100 µM (inactive) | > 100 µM (inactive) | > 100 µM (inactive) | > 100 µM | > 100 µM (inactive) |  | > 100 µM (inactive) | > 100 µM (inactive) | > 100 µM (inactive) | > 100 µM (inactive) |  | > 100 µM (inactive) | > 100 µM (inactive) | > 100 µM (inactive) | > 100 µM (inactive) | > 100 µM (inactive) | > 100 µM (inactive) | > 100 µM (inactive) | > 100 µM (inactive)
5 | C=CC[C@H]1O[Si](C(C)(C)C)(C(C)(C)C)[C@H](C)[C@H]1C | > 100 µM (inactive) | > 100 µM (inactive) | > 100 µM (inactive) | > 100 µM (inactive) | > 100 µM | > 100 µM (inactive) | > 100 µM (inactive) | > 100 µM (inactive) | > 100 µM (inactive) | > 100 µM (inactive) | > 100 µM (inactive) | > 100 µM (inactive) | > 100 µM (inactive) | 13.6 µM (inactive) | > 100 µM (inactive) | > 100 µM (inactive) |  | > 100 µM (inactive) | 39.4 µM (inactive) | 20.3 µM (inactive)
6 | CN(O)C(=O)c1ccc(OCc2cccc(Cl)c2)cc1 | 19 µM (inactive) | 19.5 µM (inactive) | 16.9 µM (inactive) | 15.2 µM (inactive) | 3.52 µM | 12.4 µM (inactive) | 24.5 µM (inactive) | 16.7 µM (inactive) | 27.8 µM (inactive) | 47.1 µM (inactive) | 15.4 µM (inactive) | 23.6 µM (inactive) | 21.6 µM (inactive) | 24.6 µM (inactive) | 24.3 µM (inactive) | 40.7 µM (inactive) | 25.6 µM (inactive) | 23.6 µM (inactive) | 8.51 µM (inactive) | 
7 | COc1cc([C@H]2OC[C@H]3[C@@H]2CO[C@@H]3c2cc(OC)c3c(c2)OCO3)cc(OC)c1OC | > 100 µM (inactive) | 43.5 µM (inactive) and 47.4 µM (inactive) | 44.6 µM (inactive) and 38.3 µM (inactive) | 83 µM (inactive) and 57.9 µM (inactive) | 34.4 µM and 39.8 µM | > 100 µM (inactive) | 46.1 µM (inactive) and 51.6 µM (inactive) | 92.3 µM (inactive) and 66.4 µM (inactive) | 19.2 µM (inactive) and 18.6 µM (inactive) | 46.6 µM (inactive) and 84.5 µM (inactive) | 39.9 µM (inactive) and 67.3 µM (inactive) | 76 µM (inactive) | 48.5 µM (inactive) and 43.7 µM (inactive) | 53.6 µM (inactive) and 43.8 µM (inactive) | > 100 µM (inactive) | > 100 µM (inactive) |  | 48.3 µM (inactive) and 42.5 µM (inactive) | 39.1 µM (inactive) | 
8 | SCCSCCCSCCS | > 100 µM (inactive) |  | 15.7 µM (inactive) | > 100 µM (inactive) | > 100 µM | > 100 µM (inactive) | 20 µM (inactive) | 49.2 µM (inactive) | > 100 µM (inactive) | 59.3 µM (inactive) | > 100 µM (inactive) | > 100 µM (inactive) | 14 µM (inactive) | 71.9 µM (inactive) | > 100 µM (inactive) | > 100 µM (inactive) |  | 86.9 µM (inactive) |  | 
9 | COc1cc(C2S/C(=C/c3ccccc3)C(=O)N2c2cccc([N+](=O)[O-])c2)cc(OC)c1OC (centres undefined) |  | > 100 µM (inactive) | 94.6 µM (inactive) | 27.5 µM (inactive) | 71.9 µM | 51.4 µM (inactive) | > 100 µM (inactive) |  | 67.3 µM (inactive) |  | 65.9 µM (inactive) | 17.5 µM (inactive) | 83.2 µM (inactive) | > 100 µM (inactive) | > 100 µM (inactive) | > 100 µM (inactive) |  | > 100 µM (inactive) | > 100 µM (inactive) | > 100 µM (inactive)
10 | COc1ccc(/C=C2\CCCC(CN(C)C)C2=O)cc1 (centres undefined) | 14.9 µM (inactive) | 18.1 µM (inactive) | 3.63 µM (inactive) | 1.95 µM (inactive) | 1.24 µM | 1.79 µM (inactive) | 5.74 µM (inactive) | 2.69 µM (inactive) | 15.3 µM (inactive) | 7.45 µM (inactive) | 1.95 µM (inactive) | 2.61 µM (inactive) | 1.76 µM (inactive) | 7.36 µM (inactive) | 9.89 µM (inactive) | 2.01 µM (inactive) |  | 2.1 µM (inactive) | 2.29 µM (inactive) | 2.53 µM (inactive)
11 | COc1ccccc1NS(=O)(=O)c1cc(C(C)(C)C)ccc1OCCOc1ccc(C(C)(C)C)cc1S(=O)(=O)Nc1ccccc1OC | > 100 µM (inactive) | > 100 µM (inactive) | > 100 µM (inactive) | > 100 µM (inactive) | > 100 µM | > 100 µM (inactive) |  | > 100 µM (inactive) | > 100 µM (inactive) | > 100 µM (inactive) | > 100 µM (inactive) |  | > 100 µM (inactive) | > 100 µM (inactive) | > 100 µM (inactive) | > 100 µM (inactive) | > 100 µM (inactive) | > 100 µM (inactive) | > 100 µM (inactive) | > 100 µM (inactive)
12 | O=C1C=C(Nc2ccc(Cl)cc2C(=O)c2ccccc2)c2ccccc2C1=O | > 100 µM (inactive) | > 100 µM (inactive) | > 100 µM (inactive) | > 100 µM (inactive) | > 100 µM | > 100 µM (inactive) |  | > 100 µM (inactive) | > 100 µM (inactive) | > 100 µM (inactive) | > 100 µM (inactive) |  | > 100 µM (inactive) | > 100 µM (inactive) | > 100 µM (inactive) | > 100 µM (inactive) | > 100 µM (inactive) | > 100 µM (inactive) | > 100 µM (inactive) | > 100 µM (inactive)
13 | O=C1c2ccccc2C(=O)c2sc(Nc3ccccc3Cl)nc21 | 15.8 µM (inactive) | 5.56 µM (inactive) | 10.6 µM (inactive) | 4.93 µM (inactive) | 9.38 µM | 14.6 µM (inactive) | 12.7 µM (inactive) | 13.9 µM (inactive) | 5.87 µM (inactive) | 13.6 µM (inactive) | 7.4 µM (inactive) |  | 8.18 µM (inactive) | 14.5 µM (inactive) | 19.5 µM (inactive) | 15.1 µM (inactive) | 16.4 µM (inactive) | 14.6 µM (inactive) | 5.68 µM (inactive) | 14.2 µM (inactive)
14 | CCc1c(O)cc(=O)oc1-c1ccc(OC)c(OC)c1 | > 100 µM (inactive) |  | > 100 µM (inactive) | > 100 µM (inactive) | > 100 µM | > 100 µM (inactive) | > 100 µM (inactive) | > 100 µM (inactive) | > 100 µM (inactive) | 72.6 µM (inactive) | > 100 µM (inactive) | > 100 µM (inactive) | > 100 µM (inactive) | > 100 µM (inactive) | > 100 µM (inactive) | > 100 µM (inactive) | > 100 µM (inactive) | > 100 µM (inactive) | > 100 µM (inactive) | 
15 | CC(=O)Oc1ccn2nc(C)c(Cc3c(C)nn4ccc(OC(C)=O)cc34)c2c1 | 51.4 µM (inactive) | > 100 µM (inactive) |  | 62.7 µM (inactive) | > 100 µM | > 100 µM (inactive) | > 10 µM (inactive) | > 100 µM (inactive) | > 100 µM (inactive) | 54.8 µM (inactive) | 98.2 µM (inactive) | 25.1 µM (inactive) | > 100 µM (inactive) | > 100 µM (inactive) |  | > 100 µM (inactive) |  |  | 98.2 µM (inactive) | > 100 µM (inactive)
